Reference: patent US7560471B2, “Indolylpiperidine derivatives as potent antihistaminic and antiallergic agents” (Laboratorios Almirall S.A., priority 2002, dated 2009)

Key:
[1] = biological target: histamine-H1 receptors (Cavia porcellus, UniProt P31389); assay: Histamine-H1 receptor binding assay ([3H]-mepyramine); conditions: guinea pig cerebellum membranes, 0.7 nM [3H]-mepyramine
Experimental: (§1) (1) Histamine-H1 Receptor Binding Assay
The study of binding to histamine-H1 receptors was performed in guinea pig cerebellum membranes as described by Chang et al., J. Neurochem, 1979, 32, 1653-1663. Briefly, the membrane suspensions (160 μg/ml) were incubated at 30° C. with 0.7 nM [^3H]-mepyramine and different concentrations of the test compounds in a final volume of 250 μl. Binding reactions were terminated by filtration after 30 min of incubation and the bound radioactivity was determined. The non-specific binding was measured in the presence of 10 μM of promethazine. The affinity of each test compound to the receptor was determined by using at least six different concentrations run in duplicate. IC50 values were obtained by non-linear regression by use of SAS on a DEC AXP computer.

[2] = biological target: T1, serotonin-5HT2 receptors (Homo sapiens, UniProt P28223); assay: Serotonin-5HT2 receptor binding assay (3H-Ketanserin); conditions: human frontal cerebral cortex membranes, 1 nM 3H-Ketanserin; read-out: 5HT-2
T1 construct: performed in human frontal cerebral cortex membranes; from tissue; host or cells: human frontal cerebral cortex membranes
Experimental: as §1
(3) Serotonin-5HT2 Receptor Binding Assay
The study of binding to serotonin-5HT2 receptors was performed in human frontal cerebral cortex membranes as described previously (Pazos et al., Eur. J. of Pharmacol, 1985, 106, 531-538). Briefly, the membrane suspensions (170 μg/ml) were incubated at 37° C. with 1 nM 3H-Ketanserin and different concentrations of the test compounds in a final volume of 250 μl. Binding reactions were terminated by filtration after 30 minutes of incubation under constant shaking and the bound radioactivity was measured. The non-specific binding was estimated in the presence of 10 μM mianserin. The affinity of each test compound to the receptor was determined by using at least six different concentrations run in duplicate. IC50 values were calculated by non-linear regression using SAS.

[3] = system: histamine-induced papule (skin vascular permeability); assay: Histamine-induced skin vascular permeability in rats; type: in vivo, rat; conditions: male Wistar rats, oral, 4 h after administration, inhibition of papule area vs vehicle
Experimental: as §1
(2) Histamine-Induced Skin Vascular Permeability in Rats
Male Wistar rats (180-210 g) were treated orally with the test compound or vehicle. Either one, four, eight or 24 hours later the rats were lightly anaesthetised with ether and a cutaneous reaction was induced by two intradermal injections of 50 μl of histamine (100 μg/ml) onto the back, followed by an intravenous injection of 3 ml/kg of Evan's Blue (5 mg/ml), both dissolved in saline. Sixty minutes later, the rats were killed by cervical dislocation and the back skin dissected free. The diameter (in millimetres) of the papule was measured in two directions and the area was calculated. Results are given as the % of inhibition at a given dose compared with the vehicle treated group.

T1 sequence (P28223 whole entry): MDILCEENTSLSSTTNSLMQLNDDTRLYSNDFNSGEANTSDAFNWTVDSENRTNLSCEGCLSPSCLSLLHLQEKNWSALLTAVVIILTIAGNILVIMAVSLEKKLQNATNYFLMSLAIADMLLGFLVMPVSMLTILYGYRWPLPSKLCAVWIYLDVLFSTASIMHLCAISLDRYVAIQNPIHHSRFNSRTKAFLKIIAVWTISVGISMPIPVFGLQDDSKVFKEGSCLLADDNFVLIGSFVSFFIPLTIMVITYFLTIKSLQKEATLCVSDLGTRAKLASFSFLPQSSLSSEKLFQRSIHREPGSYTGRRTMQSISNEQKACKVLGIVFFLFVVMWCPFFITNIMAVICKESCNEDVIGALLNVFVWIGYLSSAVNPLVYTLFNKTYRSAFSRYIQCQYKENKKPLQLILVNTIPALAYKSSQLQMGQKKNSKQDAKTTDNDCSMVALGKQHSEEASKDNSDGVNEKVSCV
histamine-H1 receptors, sequence (P31389 whole entry): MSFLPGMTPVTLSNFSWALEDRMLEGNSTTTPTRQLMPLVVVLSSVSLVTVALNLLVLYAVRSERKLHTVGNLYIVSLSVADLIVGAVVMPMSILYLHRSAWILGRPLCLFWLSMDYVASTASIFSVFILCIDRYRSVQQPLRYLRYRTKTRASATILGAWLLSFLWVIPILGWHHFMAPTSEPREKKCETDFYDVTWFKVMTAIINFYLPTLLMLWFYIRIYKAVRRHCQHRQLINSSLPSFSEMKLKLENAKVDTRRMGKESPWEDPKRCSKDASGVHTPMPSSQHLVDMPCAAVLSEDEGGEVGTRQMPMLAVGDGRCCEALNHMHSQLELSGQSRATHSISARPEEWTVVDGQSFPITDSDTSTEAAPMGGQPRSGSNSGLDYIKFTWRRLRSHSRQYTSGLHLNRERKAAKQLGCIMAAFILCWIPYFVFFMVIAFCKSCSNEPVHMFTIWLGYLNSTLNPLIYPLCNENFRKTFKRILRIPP

Compound	IC50 [1]	IC50 [2]	papule (4h) % inh a 1 mg/Kg [3]
CCCCn1cc(C2CCN(Cc3ccc(OC)c(C(=O)O)c3)CC2)c2ccccc21 [Example 3, 5-[4-(1-butyl-1H-indol-3-yl)-piperidin-1-ylmethyl]-2-methoxybenzoic acid]	130 nM	4500 nM	100%
CCOCCn1cc(C2CCN(Cc3ccc(OC)c(C(=O)O)c3)CC2)c2ccc(F)cc21 [Example 4, 5-{4-[1-(2-ethoxyethyl)-6-fluoro-1H-indol-3-yl]piperidin-1-ylmethyl}-2-methoxybenzoic acid]	160 nM	4300 nM	89%
COCCn1cc(C2CCN(Cc3ccc(OC)c(C(=O)O)c3)CC2)c2ccc(F)cc21 [Example 5, 5-{4-[6-fluoro-1-(2-methoxyethyl)-1H-indol-3-yl]piperidin-1-ylmethyl}-2-methoxybenzoic acid]	245 nM	> 10000 nM	96%
CCOCCn1cc(C2CCN(Cc3ccc(OC)c(C(=O)O)c3)CC2)c2ccccc21 [Example 1, 5-{4-[1-(2-ethoxyethyl)-1H-indol-3-yl]piperidin-1-ylmethyl}-2-methoxybenzoic acid]	145 nM	5350 nM	88%
COCCn1cc(C2CCN(Cc3ccc(OC)c(C(=O)O)c3)CC2)c2ccccc21 [Example 2, 2-methoxy-5-{4-[1-(2-methoxyethyl)-1H-indol-3-yl]piperidin-1-ylmethyl}benzoic acid]	470 nM	> 10000 nM	96%
